Test results as given in patent US11690853B2, “Non-hormonal steroid modulators of NF-κβ for treatment of disease” (ReveraGen BioPharma, Inc., priority 2015, dated 2023).
“Also recorded” adds a separate entry of the source.

Legend:
[1] = system: mdx mice; assay: mdx mouse model: histological evaluation of gastrocnemius muscle (H&E); format: in vivo; settings: H&E staining; 3 months treatment; comparison to untreated and prednisolone treated mdx mice
Protocol: (§1) Separate groups (n=12-14) of mdx mice were treated with prednisolone (5 mg/kg/day; per oral in feed), Example 1 (20 and 40 mg/kg/day; per oral in feed) and Example 2 (20 and 40 mg/kg/day; per oral in feed) for 3 months. All mice underwent 30 min biweekly treadmill exercise during the treatment duration to unmask the mild disease phenotype of mdx mouse model.
Hematoxylin and Eosin staining of gastrocnemius muscle of untreated mdx mice show significant degeneration and inflammation.

[2] = system: C57BL/6 mice; assay: Mouse carrageenan-induced paw edema model; format: in vivo; settings: Example 7 10, 20, 40 mg/kg in cherry syrup; 5 hours after carrageenan
Protocol: Female C57BL/6 mice (n=5 per group) were administered prednisone (5 mg/kg) and the compound of Example 7 (10, 20, 40 mg/kg) in cherry syrup. 24 hours later, drugs and vehicle control (syrup) were administered again. 2 hours later, mice were anesthetized, paw thickness was measured with a caliper to obtain a baseline value, and 1% carrageenan was injected subcutaneously in the subplantar region of the right hind paw. Mice were sacrificed 5 hours later and paw edema was measured via caliper. Change in thickness was calculated by subtracting baseline value from post-carrageenan injection value. Statistical analysis was performed using a Student's T-test.

[3] = system: DBA/1 mice; assay: Collagen antibody induced arthritis (CAIA) model; format: in vivo, mouse; design: Mean clinical severity score, Day 7 / Mean clinical severity score, Day 9 / Mean clinical severity score, Day 11 / Mean clinical severity score, Day 14: scale not given here; settings: for Mean clinical severity score, Day 7 / Mean clinical severity score, Day 9 / Mean clinical severity score, Day 11 / Mean clinical severity score, Day 14: oral, day 0 through day 14; for Mean clinical severity score, Day 7 / Mean clinical severity score, Day 9 / Mean clinical severity score, Day 11 / Mean clinical severity score, Day 14 / Reduction as compared with vehicle-treated mice, Day 7 / Reduction as compared with vehicle-treated mice, Day 9 / Reduction as compared with vehicle-treated mice, Day 11 / Reduction as compared with vehicle-treated mice, Day 14: prednisone 5 mg/kg, Example 7 20 mg/kg
Protocol: On day 1, DBA/1 mice (Jackson Labs, Bar Harbor, Me.) received an intraperitoneal (i.p.) injection of 2 mg of monoclonal antibody cocktail specific for collagen (CII) (MD Biosciences, St. Paul, Minn.). Two days later (day 3), mice received an i.p. injection of 100 μg of lipopolysaccharide (LPS). Mean clinical severity of CAIA was determined using a macroscopic clinical severity scoring system every 2-3 days by three individuals until the end of the experiment (day 14 post antibody cocktail injection). The scoring criteria was performed as follows:
For intervention studies, mice (n=10) received an oral dose of 20 mg/kg of the compound of Example 7 suspended in cherry syrup (30 μl total volume) on day 0 through day 14. Additional groups of mice (n=10) received 5 mg/kg of prednisone in cherry syrup as a positive control, or cherry syrup alone as a negative control. On day 14, animals were sacrificed via CO2 exposure. Statistical analysis was performed using a two-way ANOVA followed by a Bonferroni post-hoc test.

[4] = system: OVA-primed mice; assay: OVA-induced mouse model of acute allergic asthma; format: in vivo; settings: 20 mg/kg oral on days 6-11
Protocol: The model used in the current studies has been previously described (Gwinn et al. 2006; Balsley et al. 2010). Briefly, mice were primed via intraperitoneal (i.p) injection with 50 μg of OVA in PBS with 100 μl of alum (200 μl total volume per mouse) on day 0. OVA-primed mice were challenged under light anesthesia (isoflurane) by intranasal delivery of 100 μg of OVA in PBS on days 7-10. Mice were sacrificed via CO2 exposure on day 12 for analysis.
For in vivo intervention studies, mice (n=5) received an oral dose of 20 mg/kg of the compound of Example 7 suspended in cherry syrup (30 μl total volume) on days 6-11. Additional groups of mice (n=5) received 5 mg/kg of prednisone in cherry syrup as a positive control, or cherry syrup alone as a negative control. Following sacrifice on day 12, leukocytes were collected from the airways via bronchoalveolar lavage (BAL). For this procedure, a cannula was inserted into the trachea and two 1 ml washes of cold PBS were infused in and out of the airways. […]
BAL and lung tissue cells were treated with ammonium chloride lysis buffer to remove red blood cells. The remaining leukocytes were then counted and stained for FACS analysis with a combination of PE-Cy5-anti-mouse CD4 and FITC-anti-mouse CD62L to identify effector/memory CD4+ cells (CD4+/CD62L−). […]

[5] = system: knockout-transgenic sickle cell mice; assay: Mouse model of sickle cell disease; format: in vivo; settings: 30 mg/kg, 6 weeks
Protocol: Example 7 was tested in a mouse model of sickle cell disease, knockout-transgenic sickle cell mice were used which have been previously described in Meiler S E et al. 2001.
Female knockout-transgenic sickle mice (aged 6-8 weeks), were treated for 6 weeks with Example 7, (30 mg/kg) (n=5), or a vehicle control (cherry syrup) (n=5). At the end of the 6 week treatment, hematologic parameters were measured and tissues were harvested. Additionally, nociception evaluation was performed before and after treatment by assessing sensitivity to hot and cold pain as previously described in Le Bars D. et al. 2001.

[6] = system: DBA mdx mice; assay: Heart function in mdx mice (echocardiography); format: in vivo, mouse; settings: 15 and 30 mg/kg/day oral syrup, 8 weeks
From the text: To test the compound of Example 7 and its relationship to heart function, 4 groups of mdx mice (n=10, per group) and 1 group of wild type mice (n=10, per group) were studied. The groups were as indicated as such in Table 2.
The method of administration was a daily oral syrup an the treatment period was eight (8) weeks. The age at the start of the first dose was 6-7 weeks. Echocardiography was used to assess ejection fraction and fraction shortening following drug treatment.

[7] = system: J:NU mice injected with BSG mouse CSPG4+/+ cells; assay: Mouse model of diffuse intrinsic pontine glioma; format: in vivo
Protocol: A murine model of brainstem glioma developed in Dr. Javad Nazarian's laboratory at Children's National Medical Center was used for testing VBP15 efficacy in vivo. BSG mouse CSPG4+/+ cells were expanded in culture to form neurospheres and were subsequently injected into brainstems of 2-day old (P2) J:NU mice. Dexamethasone (Dex) (2.5 mg/kg body weight), Example 7 (30 mg/kg body weight) and cherry syrup (control) were orally administered daily for […] starting on postnatal day 11. In another study, mice were treated daily with Dexamethasone (Dex) (2.5 mg/kg), Example 7 (30 mg/kg) or cherry syrup from post-natal days 10-46.

[8] = system: Female beagle dogs; assay: Corpora lutea in female dogs, 39-week treatment; format: in vivo, dog; settings: at ≥2 mg/kg/day, dose-dependent increases in incidence; doses of 2, 10, or 50 mg/kg for 39 weeks
Protocol: Female beagle dogs were treated with Example 7 for 39 weeks at doses of 2, 10, or 50 mg/kg. This experiment was performed at MPI (report #1998-014). Ovaries were examined by a trained pathologist.

[9] = system: mdx mice; assay: mdx mouse model of dystrophy: body weight; format: in vivo; settings: prednisolone 5 mg/kg/day per oral in feed; 33.8 weeks age; P<0.05
Protocol: as §1

[10] = system: mdx mice; assay: mdx mouse model: in vitro force contractions of EDL muscle; format: in vivo; settings: prednisolone 5 mg/kg/day; P<0.05
Protocol: as §1
The distal tendon of the extensor digitorum longus (EDL) muscle was tied securely to the lever arm of a servomotor/force transducer (model 305B, Aurora Scientific, Richmond Hill, ON, Canada) and the proximal tendon to a tissue clamp. Muscles were stimulated between two platinum electrodes. […] With the muscle held at Lo using stimulation frequencies of 30, 50, 80, 100, 120 and 150 Hz, the maximum isometric tetanic force (Po) developed during a 300 ms train of stimulation pulses was recorded for the EDL muscle. The muscle length was then measured with calipers and after removal of the muscle from the bath the mass of the muscle was determined. For each muscle, the optimum fiber length (Lf) was calculated by multiplying Lo by a previously determined Lf/Lo ratio of 0.45. Total muscle fiber cross-sectional area was determined by dividing the wet mass by the product of Lf and the density of mammalian skeletal muscle (1.06 mg/mm^3). […]

Compound | Histology of skeletal muscle: inflammation, degeneration, regenerating fibers [1] | Mean clinical severity score, Day 7 [3] | Mean clinical severity score, Day 9 [3] | Mean clinical severity score, Day 11 [3] | Mean clinical severity score, Day 14 [3] | Reduction as compared with vehicle-treated mice, Day 7 [3] | Reduction as compared with vehicle-treated mice, Day 9 [3] | Reduction as compared with vehicle-treated mice, Day 11 [3] | Reduction as compared with vehicle-treated mice, Day 14 [3] | further results
C[C@]12CCC(=O)C=C1CCC1C2=CC[C@@]2(C)C1CC[C@]2(O)C(=O)CO (stereo partly drawn) [Example 1, (10S,13S,17R)-17-hydroxy-17-(2-hydroxyacetyl)-10,13-dimethyl-6,7,8,10,12,13,14,15,16,17-decahydro-1H-cyclopenta[a]phenanthren-3(2H)-one] | significant decrease in inflammation, degeneration, and increase in regenerating muscle fibers | – | – | – | – | – | – | – | – | –
C[C@]12C=CC(=O)C=C1CCC1C2=CC[C@@]2(C)C1CC[C@]2(O)C(=O)CO (stereo partly drawn) [Example 2, (10S,13S,17R)-17-hydroxy-17-(2-hydroxyacetyl)-10,13-dimethyl-6,7,8,10,12,13,14,15,16,17-decahydro-3H-cyclopenta[a]phenanthren-3-one] | significant decrease in inflammation, degeneration, and increase in regenerating muscle fibers | – | – | – | – | – | – | – | – | –
C[C@@H]1CC2C3CCC4=CC(=O)C=C[C@]4(C)C3=CC[C@]2(C)[C@@]1(O)C(=O)CO (stereo partly drawn) [Example 7, (10S,13S,16R,17R)-17-hydroxy-17-(2-hydroxyacetyl)-10,13,16-trimethyl-6,7,8,10,12,13,14,15,16,17-decahydro-3H-cyclopenta[a]phenanthren-3-one] | – | 4.5 ± 0.95 | 5.0 ± 0.77 | 5.6 ± 0.82 | 3.1 ± 0.69 | 43.8% | 35.5% | 41.3% | 50% | Paw edema induced by carrageenan (change in paw thickness) [2]: effective at reducing mouse paw edema; Collagen antibody induced arthritis, overall effect ([3]; 20 mg/kg oral): effective at reducing collagen antibody induced arthritis; Acute allergic lung inflammation: leukocyte infiltration (eosinophils and CD4+ T cells) and mucus production [4]: effective at improving parameters of acute allergic lung inflammation; Platelet count [5]: decreases; also recorded: reduces platelet count; Sensitivity to cold pain [5]: strikingly decreases sensitivity to cold pain; also recorded: reduces sensitivity to cold pain; Sensitivity to heat pain [5]: significantly decreases sensitivity to heat pain; also recorded: reduces sensitivity to heat pain; Spleen size [5]: decreased spleen size; also recorded: reduces spleen size; White blood cell count [5]: decreases white blood cell count; also recorded: reduces white blood cell count; Ejection fraction [6]: improved ejection fraction; Fraction shortening [6]: improved fraction shortening; Increase in survival relative to mice treated with dexamethasone or control mice ([7]; 30 mg/kg daily from post-natal days 10-46): 19%; Brain edema ([7]; 30 mg/kg oral daily for 14 weeks starting on postnatal day 11): significant decrease in brain edema; Corpora lutea in the ovaries [8]: absent bilaterally
C[C@]12C=CC(=O)C=C1CC[C@@H]1[C@@H]2[C@@H](O)C[C@@]2(C)[C@H]1CC[C@]2(O)C(=O)CO [Prednisolone] | appeared to increase degeneration and decrease in regeneration | – | – | – | – | – | – | – | – | Body weight versus untreated mice [9]: significantly lower body weight; Specific force of EDL muscle, difference to untreated group [10]: no statistically significant (P<0.05) difference
C[C@]12C=CC(=O)C=C1CC[C@@H]1[C@@H]2C(=O)C[C@@]2(C)[C@H]1CC[C@]2(O)C(=O)CO [Prednisone, reference compound] | – | 2.4 ± 0.68 | 1.5 ± 0.27 | 2.9 ± 0.39 | 0.7 ± 0.3 | 69.8% | 69.8% | 69.1% | 88.7% | –
